# Reference: patent publication US12263248B2, “Compounds and compositions for intracellular delivery of therapeutic agents” (ModernaTX, Inc., priority 2018, dated 2025)
# What was measured:
# [1] = Particle size and polydispersity index of nanoparticle compositions (Zetasizer Nano ZS); assay type: physicochemical; settings: Table 1A; for Size (nm): lipid:DSPC:cholesterol:PEG-DMG 50:10:38.5:1.5 mol %
# Experimental: A Zetasizer Nano ZS (Malvern Instruments Ltd, Malvern, Worcestershire, UK) can be used to determine the particle size, the polydispersity index (PDI) and the zeta potential of the nanoparticle compositions in 1×PBS in determining particle size and 15 mM PBS in determining zeta potential.
# [2] = Encapsulation efficiency of RNA (QUANT-IT RIBOGREEN RNA assay); assay type: physicochemical; settings: Table 1A
# Experimental: For nanoparticle compositions including an RNA, a QUANT-IT™ RIBOGREEN® RNA assay (Invitrogen Corporation Carlsbad, CA) can be used to evaluate the encapsulation of an RNA by the nanoparticle composition. The samples are diluted to a concentration of approximately […] in a TE buffer solution (10 mM Tris-HCl, 1 mM EDTA, pH 7.5). 50 μL of the diluted samples are transferred to a polystyrene 96 well plate and either 50 μL of TE buffer or 50 μL of a 2% Triton X-100 solution is added to the wells. The plate is incubated at a temperature of 37° C. for 15 minutes. The RIBOGREEN® reagent is diluted 1:100 in TE buffer, and 100 μL of this solution is added to each well. The fluorescence intensity can be measured using a fluorescence plate reader (Wallac Victor 1420 Multilabel Counter; Perkin Elmer, Waltham, MA) at an excitation wavelength of, for example, about 480 nm and an emission wavelength of, for example, about 520 nm. The fluorescence values of the reagent blank are subtracted from that of each of the samples and the percentage of free RNA is determined by dividing the fluorescence intensity of the intact sample (without addition of Triton X-100) by the fluorescence value of the disrupted sample (caused by the addition of Triton X-100).
# [3] = Apparent (surface) pKa of the LNP formulation (TNS assay); assay type: physicochemical; settings: Table 1A
# Experimental: Using sodium hydroxide (1 M) and hydrochloric acid (1 M), 21 unique buffers were prepared from the master buffer stock at pH values between about 3 and 12. Next, a stock of 300 μM 6-(p-Toluidino)-2-naphthalenesulfonic acid sodium salt (TNS reagent) in DMSO was prepared and the LNP was mixed with the desired formulation buffer at a concentration of 0.04 mg/mL mRNA. This assay has been validated in 1× PBS and 20 mM Tris w/8% sucrose buffer. The buffer solutions at various pH values were added to a 96-well plate in triplicate for each pH. To each well was added 3.26 μL of LNP sample at a mRNA concentration of 0.04 mg/mL and 2.0 μL of 300 μM TNS reagent solution. After careful mixing, the resulting fluorescence values were read for each plate to create a sigmoidal plot of the fluorescence values vs. buffer pH. The […] inflection point of this curve is the apparent pKa of the LNP formulation.
# luciferase (Luc) mRNA [4] = assay: Luc expression, whole body bioluminescence after intravenous administration to mice; assay type: in vivo; settings: for Fold increase in total body Luc Flux relative to MC3 at 6 h: Table 3A; for Total Flux 3 hours / Total Flux 6 hours / Total Flux 24 hours: mice, i.v., 0.5 mg/kg, Luc mRNA
# Experimental: In order to monitor how effectively various nanoparticle compositions deliver therapeutic and/or prophylactics to targeted cells, different nanoparticle compositions including a particular therapeutic and/or prophylactic (for example, a modified or naturally occurring RNA such as an mRNA) are prepared and administered to rodent populations. Mice are intravenously, intramuscularly, intraarterially, or intratumorally administered a single dose including a nanoparticle composition with a formulation such as those provided in Example 3. In some instances, mice may be made to inhale doses. Dose sizes may range from 0.001 mg/kg to 10 mg/kg, where 10 mg/kg describes a dose including 10 mg of a therapeutic and/or prophylactic in a nanoparticle composition for each 1 kg of body mass of the mouse. A control composition including PBS may also be employed.
# Upon administration of nanoparticle compositions to mice, dose delivery profiles, dose responses, and toxicity of particular formulations and doses thereof can be measured by enzyme-linked immunosorbent assays (ELISA), bioluminescent imaging, or other methods. For nanoparticle compositions including mRNA, time courses of protein expression can also be evaluated. Samples collected from the rodents for evaluation may include blood, sera, and tissue (for example, muscle tissue from the site of an intramuscular injection and internal tissue); sample collection may involve sacrifice of the animals.
# The efficacy of the nanoparticle compositions presented in Table 1A was evaluated with a bioluminescence study. Formulations were administered intravenously to mice (n=6) at a dosage of 0.5 mg/kg (mpk) and bioluminescence measured at 3, 6, and 24 hour time points. The standard MC3 formulation and, in some instances, a control (e.g., a PBS control) were evaluated for comparison. […] In general, flux decreased as time progressed to less than 10% of the initial flux.
# (§1) Whole body and ex vivo organ bioluminescent imaging of mice: CD-1 mice were injected 15 minutes prior to the imaging timepoint intraperitoneally (IP) with 200 μL Xenolight D-luciferin K+ salt, diluted in PBS just prior to use to a concentration of 15 mg/mL. Ex vivo imaging of organs was completed within 25 minutes of luciferin administration. All images were quantified by region of interest for total flux.
# luciferase (Luc) mRNA [5] = assay: Luc expression in liver, lung, spleen and femur 6 hours after intravenous administration; assay type: in vivo; settings: mice, 0.5 mpk; for Total Flux Liver / Total Flux Lung / Total Flux Spleen: intravenous
# Experimental: The efficacy of the nanoparticle compositions presented in Table 1A was further evaluated by measuring the expression of modified luciferase in the liver, lung, spleen, and femur upon administration of a given composition. Formulations were administered intravenously to mice (n=3) at a dosage of 0.5 mpk and bioluminescence measured after 6 hours. The standard MC3 formulation and a PBS control were also tested. […] Flux in the liver was lowest for compositions including Compounds 58, 59, 137, and 141. Flux in the spleen was highest for compositions including Compounds 4, 7, 33, 34, 48, 53, 108, 129, 130, and 148, and lowest for compositions including Compounds 9, 59, 124, and 141.
# as §1
SMILES,PDI [1],Size (nm) [1] [nm],EE (%) [2] [%],pKa [3],Fold increase in total body Luc Flux relative to MC3 at 6 h (luciferase (Luc) mRNA [4]; i.v. administration),Total Flux 3 hours (luciferase (Luc) mRNA [4]),Total Flux 6 hours (luciferase (Luc) mRNA [4]),Total Flux 24 hours (luciferase (Luc) mRNA [4]),Total Flux Liver (luciferase (Luc) mRNA [5]),Total Flux Lung (luciferase (Luc) mRNA [5]),Total Flux Spleen (luciferase (Luc) mRNA [5]),"Flux in the liver (luciferase (Luc) mRNA [5]; i.v., in words)","Flux in the spleen (luciferase (Luc) mRNA [5]; i.v., in words)","flux measured at 6 h relative to the MC3 formulation (luciferase (Luc) mRNA [4]; i.v. administration, in words)"
"CCCCCCCC/C=C\CCCCCCCCN(CCO)CCCCCCCC(=O)OC(CCCCCCCC)CCCCCCCC [Compound 31, heptadecan-9-yl (Z)-8-((2-hydroxyethyl)(octadec-9-en-1-yl)amino) octanoate]",0.15,73.9,95.11,6.64,1.21,4.19E+10,5.31E+10,1.68E+09,5.17E+09,7.55E+06,9.42E+07,,,
"CCCCCCCCCOC(=O)CCCCCCCN(CCO)CCCCCCCC(=O)OC(CCCCC)CCCCCCCC (stereo not shown) [Compound 33, nonyl 8-((2-hydroxyethyl)(8-oxo-8-(tetradecan-6-yloxy)octyl)amino) octanoate]",0.13,107.3,95.66,6.80,2.74,6.53E+10,1.20E+11,3.71E+09,1.78E+10,2.92E+07,3.77E+08,highest,highest,
"CCCCCCCCCOC(=O)CCCCCCCN(CCO)CCCCCCCC(=O)OC(CCC)CCCCCCCC (stereo not shown) [Compound 34, dodecan-4-yl 8-((2-hydroxyethyl)(8-(nonyloxy)-8-oxooctyl)amino) octanoate]",0.14,133.8,92.52,6.64,0.34,1.06E+10,1.48E+10,6.69E+08,2.08E+09,9.49E+06,2.40E+08,,highest,
"CCCCCCCCCOC(=O)CCCCCCCN(CCO)CCCCCCCC(=O)OC(C)CCCCCCCC (stereo not shown) [Compound 36, decan-2-yl 8-((2-hydroxyethyl)(8-(nonyloxy)-8-oxooctyl)amino) octanoate]",0.17,163.5,81.45,7.38,0.004,6.97E+07,1.72E+08,4.44E+05,2.65E+07,5.82E+05,6.14E+07,,,
"CCCCCCCCC(CCCCCCCC)OC(=O)CCCCCCCN(CCO)CCCC(=O)OCCCCCCC [Compound 54, heptadecan-9-yl 8-((4-(heptyloxy)-4-oxobutyl)(2-hydroxyethyl)amino) octanoate]",0.19,112.9,96.71,6.51,3.80,5.36E+10,4.18E+10,9.07E+08,5.57E+09,1.12E+07,1.64E+08,,,higher flux than MC3 formulations

# Second part, led by results:
PDI [1],Size (nm) [1] [nm],EE (%) [2] [%],pKa [3],SMILES,Fold increase in total body Luc Flux relative to MC3 at 6 h (luciferase (Luc) mRNA [4]; i.v. administration),Total Flux 3 hours (luciferase (Luc) mRNA [4]),Total Flux 6 hours (luciferase (Luc) mRNA [4]),Total Flux 24 hours (luciferase (Luc) mRNA [4]),Total Flux Liver (luciferase (Luc) mRNA [5]),Total Flux Lung (luciferase (Luc) mRNA [5]),Total Flux Spleen (luciferase (Luc) mRNA [5]),"Flux in the liver (luciferase (Luc) mRNA [5]; i.v., in words)","Flux in the spleen (luciferase (Luc) mRNA [5]; i.v., in words)","flux measured at 6 h relative to the MC3 formulation (luciferase (Luc) mRNA [4]; i.v. administration, in words)"
0.24,62.4,0,4.43,"CCCCCCCCCOC(=O)CCCCCCCN(CCCCCCCC(=O)OC(CCCCCCCC)CCCCCCCC)Cc1ccccc1 [Compound 94, Heptadecan-9-yl 8-(benzyl(8-(nonyloxy)-8-oxooctyl)amino)octanoate]",,,,,,,,,,
0.74,55,0,4.802,CCCCCCCCCOC(=O)CCCCCCCN(CCCCCCCC(=O)OC(CCCCCCCC)CCCCCCCC)CCCC(F)(F)F [Compound 107],,,,,,,,,,
0.14,63.3,99.4,5.66,"CCCCCCCCCOC(=O)CCCCCCCN(CCCCCCCC(=O)OC(CCCCCCCC)CCCCCCCC)CCCn1cnc2c(N)ncnc21 [Compound 116, Heptadecan-9-yl 8-((3-(6-amino-9H-purin-9-yl)propyl)(8-(nonyloxy)-8-oxooctyl)amino)octanoate]",,3.13E+07,3.86E+07,,,,,,,
0.24,60.8,98.1,5.29,"CCCCCCCCCOC(=O)CCCCCCCN(CCO)CCCCCCCC(=O)Oc1ccc(CCCCC)cc1 [Compound 119, Nonyl 8-((2-hydroxyethyl)(8-oxo-8-(4-pentylphenoxy)octyl)amino)octanoate]",,1.02E+07,3.74E+07,,,,,,,
0.11,71.6,94.7,6.16,"CCCCCCCCCOC(=O)CCCCCCCN(CCCCCCCC(=O)OC(CCCCCCCC)CCCCCCCC)CCCn1ccnn1 [Compound 179, Heptadecan-9-yl 8-((3-(1H-1,2,3-triazol-1-yl)propyl)(8-(nonyloxy)-8-oxooctyl)amino)octanoate]",,,,,,,,,,
0.12,78.7,88.9,6.17,"CCCCCCCCCOC(=O)CCCCCCCN(CCCCCCCC(=O)OC(CCCCCCCC)CCCCCCCC)CCCNC(=O)OC [Compound 181, Heptadecan-9-yl 8-((3-((methoxycarbonyl)amino)propyl)(8-(nonyloxy)-8-oxooctyl)amino)octanoate]",,,,,,,,,,
0.24,84.2,99.5,7.62,"CCCCCCCCCOC(=O)CCCCCCCN(CCCCCCCC(=O)OC(CCCCCCCC)CCCCCCCC)CCCNC(=O)CO [Compound 198, Heptadecan-9-yl 8-((3-(2-hydroxyacetamido)propyl)(8-(nonyloxy)-8-oxooctyl)amino)octanoate]",,,,,,,,,,
